Measurements taken from US20130064870A1, “DRY POWDER INHALATION COMPOSITION” (SUN PHARMA ADVANCED RESEARCH COMPANY LIMITED, priority 2010, published 2013).
Values joined by “and” are separate entries in the source; they are usually repeats but may differ in a detail not shown here. Equal entries are not always repeated.

How the values were obtained:
Format in all cases: physicochemical
[1] = Polymorphic purity by differential scanning calorimetry (DSC)
Protocol: The phrase ‘substantially free of polymorph II’ means the micronized salmeterol xinafoate having not more than 5%, preferably not more than 3%, most preferably not more than 1% of polymorph II. The polymorphic purity of the salmeterol xinafoate can be determined by any known analytical method. According to the present invention, the polymorphic purity is determined by differential scanning calorimeter (DSC). The melting points of polymorph I and polymorph II are distinct and this method can determine the presence of two.
In one embodiment, the salmeterol xinafoate was obtained by micronizing salmeterol xinafoate by milling in a jet mill with grinding parameters are as follows: grinding pressure: 1-5 bars, feed pressure: 2-10 bars, feed rate of 0.1-10 g/min, followed by subjecting the micronized material to a temperature of about 50° C. to 90° C., wherein the conditioning cycle is carried out for a time period o about 1 hour to 120 hours, preferably, 1 to 50 hours, most preferably, 20 hrs to 40 hrs. The polymorphic purity of the resultant salmeterol xinafoate so obtained was determined by recording the differential scanning calorimetry (See FIGS. 3-5).
The results of the polymorphic purity were determined by differential scanning calorimeter and are tabulated below

[2] = Mean particle size (D50) by laser light diffraction
Protocol: The term ‘mean particle size’ as used herein means the particle size distribution of 50% of the population of the particles is less than the specified value. The particle size was measured using laser light diffraction method of particle size analysis.

Tapped density = test: Tapped density
Text: The term ‘tapped density’ as used herein means that density attained after mechanically tapping a receptacle containing the powder sample.

[3] = In vitro cascade impactor test (fine particle fraction/dose, MMAD, GSD, deposition), USP <601>; conditions: applicant's patented device
Text: A cascade impactor is a multi-stage sampling device for determining the size distribution of a particulate aerosol. The aerosol flows into the impactor whereupon it impinges upon a sequence of solids discs. Each disc (which represents a ‘stage’) is contained within a flow chamber and each chamber is connected in a vertical arrangement to the previous and next chamber in the sequence. Larger particles impact on the first disc and are captured. The sampling velocity increases for each successive chamber/disc so that successively smaller particles are collected. The final stage is typically a fine filter septum. Up to 10 stages are often used which divides the size distribution into an equivalent number of portions. The present invention may use eight Stage Sampler which meets the guidelines of the various world pharmacopoeias (e.g., United States Pharmacopoeia Chapter 601 “USP <601>”) to characterize metered-dose (MDI) and dry powder-dose inhalers (DPI), nebulizers, nasal sprays and other pulmonary drugs or a Next generation impactor (NGI) by Anderson. The testing of inhalation drugs goes hand and hand with cascade impactors, the size ranges collected are considered inhalable (generally <10 μm), just as the inhalation drugs should consistently arrive within the respiratory system into their target regions, the various stages represent the cut-off sizes when deposition may occur within the lungs.
In order to evaluate the effect of the dry powder inhalation composition itself, the composition was delivered via two different inhalation devices namely, a marketed inhalation device, namely, such as for example Rotahaler® and the applicant's own patented device. The % fine particle fraction and mass mean aerodynamic diameter was determined by testing in vitro in cascade impactor. The therapeutic efficacy of the composition of the present invention in terms of fine particle fraction was determined by a cascade impaction method official in the United States Pharmacopoeia, chapter <601>.
The conditioned micronized salmeterol xinafoate having mean particle size of […] and a tapped density in the range of 0.20 g·cm^−3 to 0.45 g·cm^−3 was tested for fine particle fraction, mass mean aerodynamic diameter in a cascade impactor. The composition was delivered using the applicant's patented device as described in the description. The results of the in-vitro testing are provided below in Table 2:
The composition of dry powder inhalation was subjected to fine particle dose determination. This was determined according to the procedure given in USP chapter <601>. The fine particle fraction was measured in terms of deposition at various stages as per the pharmacopoeial method. […]

[4] = Polymorphic purity by differential scanning calorimetry (DSC); conditions: micronized, conditioned 80 hr at 40° C., 80 bar, CO2
[5] = micronized, before conditioning at 40° C./80 bar CO2
[6] = micronized, conditioned 40 hr at 85° C., air, no pressure
[7] = micronized, not conditioned (FIG. 3)
[8] = un-micronized salmeterol xinafoate (FIG. 2)
[9] = batch D50 4.02, tapped density 0.25
[10] = batch D50 5.99, tapped density 0.43

## OCc1cc(C(O)CNCCCCCCOCCCCc2ccccc2)ccc1O (stereo not drawn) [salmeterol xinafoate]
[1]; [5]
  % polymorph I: 44.18%
  % polymorph II: 34.34%
[1]; micronized, conditioned 24 hr at 85° C., air, no pressure
  % Salmeterol xinafoate Polymorph form I: 92.78%
[1]; [6]
  % Salmeterol xinafoate Polymorph form I: 96.40%
  % Salmeterol xinafoate Polymorph form II: 3.66% and 3.60%
[1]; [7]
  % polymorph I: 69.20%
  % polymorph II: 30.80%
[1]; [8]
  % polymorph form I: 88.8%
  % polymorph form II: 11.20%
[2]; conditioned micronized batch with tapped density 0.25
  Mean particle size D50: about 4.02 μms
[2]; conditioned micronized batch with tapped density 0.25, listed as salmeterol xinofoate
  Mean particle size D50: 4.02 μms
[2]; conditioned micronized batch with tapped density 0.43
  Mean particle size D50: about 6 μms
[2]; conditioned micronized batch with tapped density 0.43, listed as salmeterol xinofoate
  Mean particle size D50: 5.99 μms
Tapped density; conditioned micronized batch with D50 4.02
  Tapped density: 0.25 g/mL
Tapped density; conditioned micronized batch with D50 5.99
  Tapped density: 0.43 g/mL
[3]; [9]
  % FPF Mean: 41.115%
  GSD Mean: 1.747
[3]; [10]
  % FPF Mean: 20.91%
  GSD Mean: 1.734
[4]
  % Salmeterol xinafoate Polymorph form I: 85.95%
  % Salmeterol xinafoate Polymorph form II: 9.09%
